Laboratory results from US10519211B2, “Compounds as peptidic GLP1/glucagon/GIP receptor agonists” (SANOFI, priority 2016, dated 2019).
Numbered stars: 1 amine (or outer) side, 2 acyl side, 3 side chain; on linkers, the order of the positions; unused ones are H or OH. Square brackets hold non-standard residues; d marks the D form. Side chains are listed from the residue outwards. Peptide text beside a SMILES is read from it. * marks the point of attachment. γGlu = O=C(O)[C@H](CCC(=O)[*:2])N[*:1]; Palmitoyl = CCCCCCCCCCCCCCCC(=O)*; Aib = CC(C)(N)C(=O)O

How the values were obtained:
[1] = Chemical stability assessment (UPLC-UV, relative purity loss); type: physicochemical; conditions: 1 mg/ml, 25 mM acetate buffer pH 4.5 with m-cresol (buffer system A)
Summary of the method: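 Peptide at 1 mg/mL (purity-corrected) in 25 mM acetate pH 4.5 with methionine, m-cresol and glycerol, sterile-filtered, stored 28 days at 40° C. Purity measured by UPLC-UV as peptide peak area fraction at start and after storage; value is relative percent purity loss.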

[2] = Thioflavin T (ThT) assay for physical stability (fibrillation); type: physicochemical; conditions: 3 mg/ml, 100 mM acetate pH 4.5 with m-cresol, shaking at 37° C.
Summary of the method: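 Peptide at 3 mg/ml with 100 μM ThT in 100 mM acetate pH 4.5 with m-cresol, stressed at 37° C by cycles of 10 s shaking at 960 rpm and 50 s rest. Fluorescence read every 20 minutes, eight replicates; lag time in hours.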

[3] = tested on: female diet-induced obese (DIO) C57BL/6NHsd mice; assay: Acute and chronic effects after subcutaneous treatment in female diet-induced obese (DIO) mice; type: in vivo, mouse; conditions: for Body mass compared to the DIO-Vehicle group / Whole body fat mass compared to the DIO-Vehicle group / Plasma insulin concentrations compared to DIO vehicle / Plasma total cholesterol concentrations compared to DIO vehicle / Liver mass on day 28 compared to DIO animals treated with vehicle / Plasma alanine aminotransferase concentration on day 28 compared to DIO vehicle: 30 μg/kg s.c. twice daily; for Body mass compared to the DIO-Vehicle group / Whole body fat mass compared to the DIO-Vehicle group / Body mass change: 28 days; for Body mass compared to the DIO-Vehicle group / Whole body fat mass compared to the DIO-Vehicle group / Plasma insulin concentrations compared to DIO vehicle / Plasma total cholesterol concentrations compared to DIO vehicle / Liver mass on day 28 compared to DIO animals treated with vehicle / Plasma alanine aminotransferase concentration on day 28 compared to DIO vehicle / 24 hour blood glucose profile following first treatment: in words; for Plasma insulin concentrations compared to DIO vehicle / Plasma total cholesterol concentrations compared to DIO vehicle: day 28; for 24 hour blood glucose profile following first treatment: 30 μg/kg s.c., day 1, fed DIO mice, vs DIO control; for Body mass change / Whole body fat mass change / Terminal liver mass (g) / Terminal plasma alanine aminotransferase (U/L) / Terminal plasma insulin (U/L) / Terminal plasma total cholesterol (mmol/L): Table 9, twice-daily 30 μg/kg s.c.; for Body mass change: mean ± SEM; for Whole body fat mass change: QNMR predose vs day 26, mean ± SEM; for Terminal liver mass (g) / Terminal plasma alanine aminotransferase (U/L) / Terminal plasma insulin (U/L) / Terminal plasma total cholesterol (mmol/L): day 28, mean ± SEM
Experimental: Female C57BL/6NHsd mice were ordered group housed from Envigo RMS Inc., shipped group housed and remained group housed with shipped cage mates in shoebox caging with wood chip bedding until day 38 of the predose phase. At the study start mice were between 25-26 weeks old.
Mice were housed under vivarium conditions that included a 12 h light/dark cycle (light phase 04:00 AM-4:00 PM), room temperatures between 23-26° C. and a relative humidity between 30-70%. All animals had free access to water and a high fat diet (TD97366) for 16 weeks prior to pharmacological intervention (dosing phase). Feed was replaced with fresh feed weekly until and for the last time on day 38 of the predose phase. During the subsequent dosing phase, approximately 50% of the remaining feed were removed, replaced with fresh feed, and pellets were mixed evenly once per week.
On predose day 38, obese DIO mice were assigned to treatment groups (n=8) to match mean body masses between all DIO groups. An age-matched group with ad libitum access to a rodent maintenance diet (Teklad Global Diets Rodent 2014, pelleted) was included in the study as a lean control group. In the predosing phase from day 32 through 38, all study animals were treated with vehicle (Phosphate Buffered Saline, PBS, Gibco, without CaCl2 and MgCl2) once daily (s.c. approximately 0.2 mL/mouse).
On day 37 of the predose phase, the test article was diluted with PBS to a concentration of 100 μg/mL and aliquots of this stock solution were stored at approximately ≤−60° C. Stock aliquots were thawed for weekly use and thereafter stored in a refrigerator at approximately 4° C. The injected test article solution was prepared fresh once on each dosing day by diluting stock solution with PBS to achieve the desired concentration.
Mice were treated twice daily with a s.c. injection of PBS-vehicle or the test article for 28 days. The morning dosing was initiated and completed between 06:00 and 07:30 AM and the afternoon dosing between 2:00 and 3:30 PM. On day 28 of the dosing phase only the morning dose was administered. The applied volume was 5 ml/kg and the dose was adjusted to the most recent body mass recording of each individual.
Animals had unlimited access to water and feed during the experiment. On day 1 of the dosing phase approximately 5 μL of blood were collected via tail clips at hour 0, prior to the first s.c. dose of PBS-vehicle or test-article as well as 1, 2, 3, 4, 6, and 24 hours post-dose. Animals received the second s.c. dose of PBS-vehicle or test-article 8 hours after the first dose. The 24 hour blood collection of the blood glucose profile was performed prior to dosing on day 2. Glucose measurements were performed in whole blood and in duplicate or triplicate using Aviva glucometers.
Body mass was measured daily approximately between 06:00-07:30 AM from day 32 through 38 of the predosing phase and throughout the 28 days of the dosing phase. During the dosing phase mice were treated twice daily with either a s.c. injection of PBS-vehicle or test article.
To determine whole body fat mass Quantitative Nuclear Magnetic Resonance (QNMR) measurements were performed on predosing day 37 and on day 26 of the dosing phase. During the dosing phase mice were treated twice daily with either a s.c. injection of PBS-vehicle or test article.
On day 28 blood was collected prior to any other inlife activities for determination of plasma insulin concentrations. Then the morning dose was administered and necropsy was performed 4 hours post-dose. For this purpose animals were anesthetized with isoflurane and blood was collected by orbital bleeding.
On day 28 and 4 hours after the morning dose, blood was collected from mice under isoflurane anesthesia as described above. Then mice were killed and livers were collected and weighed.
Data are depicted as means±SEM. […] A One-Way ANOVA and Tukey Test were used for pairwise multiple comparisons of all groups (n=8/group, deviations from group size are indicated). […]

CCCCCCCCCCCCCCCC(=O)N[C@@H](CCC(=O)N[C@@H](CCC(=O)NCCCC[C@H](NC(=O)[C@H](CC(C)C)NC(=O)[C@H](CCCCN)NC(=O)[C@H](CO)NC(=O)[C@H](CC(C)C)NC(=O)[C@H](CC(=O)O)NC(=O)[C@H](CO)NC(=O)[C@@H](NC(=O)[C@H](Cc1ccccc1)NC(=O)[C@@H](NC(=O)CNC(=O)[C@H](CCC(N)=O)NC(=O)C(C)(C)NC(=O)[C@@H](N)Cc1c[nH]cn1)[C@@H](C)O)[C@@H](C)O)C(=O)N[C@@H](CCC(=O)O)C(=O)N[C@@H](CCCCN)C(=O)N[C@@H](CCC(N)=O)C(=O)N[C@@H](CCCNC(=N)N)C(=O)N[C@@H](CCC(N)=O)C(=O)NC(C)(C)C(=O)N[C@@H](CCC(=O)O)C(=O)N[C@@H](Cc1ccccc1)C(=O)N[C@H](C(=O)N[C@@H](CCC(=O)O)C(=O)N[C@@H](Cc1c[nH]c2ccccc12)C(=O)N[C@@H](CC(C)C)C(=O)N[C@@H](CCCCN)C(=O)N[C@@H](C)C(=O)NCC(=O)NCC(=O)N1CCC[C@H]1C(=O)N1CCC[C@H]1C(=O)N[C@@H](CO)C(=O)NC(C)(C)C(=O)N[C@@H](CCCCN)C(=O)N1CCC[C@H]1C(=O)N1CCC[C@H]1C(=O)N1CCC[C@H]1C(=O)N[C@@H](CCCCN)C(N)=O)[C@@H](C)CC)C(=O)O)C(=O)O [SEQ ID NO: 6, H-Aib-Q-G-T-F-T-S-D-L-S-K-L-K[gGlu-gGlu-Palm]-E-K-Q-R-Q-Aib-E-F-I-E-W-L-K-A-G-G-P-P-S-Aib-K-P-P-P-K-NH2]
Chemical stability [relative purity loss 28 days 40° C.] (%) at pH 4.5 [1]: 6.9% | Lag time before increase [2]: >45 h | Body mass compared to the DIO-Vehicle group [3]: statistically significant decrease in body mass | Whole body fat mass compared to the DIO-Vehicle group [3]: statistically significantly reduction in whole body fat mass | Plasma insulin concentrations compared to DIO vehicle [3]: statistically significant reduction in plasma insulin concentrations | Plasma total cholesterol concentrations compared to DIO vehicle [3]: statistically significant reduction in plasma total cholesterol concentrations | Liver mass on day 28 compared to DIO animals treated with vehicle [3]: statistically significantly lower liver mass | Plasma alanine aminotransferase concentration on day 28 compared to DIO vehicle [3]: statistically significantly lower plasma alanine aminotransferase concentration | 24 hour blood glucose profile following first treatment [3]: decrease in blood glucose concentrations below concentrations observed in DIO control mice | Body mass change [3]: -5.36 ± 0.36 g | Whole body fat mass change [3]: -4.33 ± 0.42 g | Terminal liver mass (g) [3]: +1.16 ± 0.04 g | Terminal plasma alanine aminotransferase (U/L) [3]: +62.25 ± 9.79 U/L | Terminal plasma insulin (U/L) [3]: +31.07 ± 5.26 U/L | Terminal plasma total cholesterol (mmol/L) [3]: +5.11 ± 0.12 mmol/L

CCCCCCCCCCCCCCCC(=O)N[C@@H](CCC(=O)N[C@@H](CCC(=O)NCCCC[C@H](NC(=O)[C@H](CC(C)C)NC(=O)[C@H](CCCCN)NC(=O)[C@H](CO)NC(=O)[C@H](CC(C)C)NC(=O)[C@H](CC(=O)O)NC(=O)[C@H](CO)NC(=O)[C@@H](NC(=O)[C@H](Cc1ccccc1)NC(=O)[C@@H](NC(=O)CNC(=O)[C@H](CCC(N)=O)NC(=O)C(C)(C)NC(=O)[C@@H](N)Cc1c[nH]cn1)[C@@H](C)O)[C@@H](C)O)C(=O)N[C@@H](CCC(=O)O)C(=O)N[C@@H](CCCCN)C(=O)N[C@@H](CCC(N)=O)C(=O)N[C@@H](CCCNC(=N)N)C(=O)N[C@@H](CCC(N)=O)C(=O)NC(C)(C)C(=O)N[C@@H](CCC(=O)O)C(=O)N[C@@H](Cc1ccccc1)C(=O)N[C@H](C(=O)N[C@@H](CCC(=O)O)C(=O)N[C@@H](Cc1c[nH]c2ccccc12)C(=O)N[C@@H](CC(C)C)C(=O)N[C@@H](CCCCN)C(=O)N[C@@H](C)C(=O)N[C@H](C)C(=O)NCC(=O)N1CCC[C@H]1C(=O)N1CCC[C@H]1C(=O)N[C@@H](CO)C(=O)NC(C)(C)C(=O)N[C@@H](CCCCN)C(=O)N1CCC[C@H]1C(=O)N1CCC[C@H]1C(=O)N1CCC[C@H]1C(=O)N[C@@H](CCCCN)C(N)=O)[C@@H](C)CC)C(=O)O)C(=O)O [SEQ ID NO: 7, H-Aib-Q-G-T-F-T-S-D-L-S-K-L-K[gGlu-gGlu-Palm]-E-K-Q-R-Q-Aib-E-F-I-E-W-L-K-A-dAla-G-P-P-S-Aib-K-P-P-P-K-NH2] (H-H[Aib]QGTFTSDLSKLK([γGlu-γGlu-Palmitoyl])EKQRQ[Aib]EFIEWLKA[dA]GPPS[Aib]KPPPK-NH2)
Chemical stability [relative purity loss 28 days 40° C.] (%) at pH 4.5 [1]: 6.8% | Lag time before increase [2]: >45 h | Body mass compared to the DIO-Vehicle group [3]: statistically significant decrease in body mass | Whole body fat mass compared to the DIO-Vehicle group [3]: statistically significantly reduction in whole body fat mass | Plasma insulin concentrations compared to DIO vehicle [3]: statistically significant reduction in plasma insulin concentrations | Plasma total cholesterol concentrations compared to DIO vehicle [3]: statistically significant reduction in plasma total cholesterol concentrations | Liver mass on day 28 compared to DIO animals treated with vehicle [3]: statistically significantly lower liver mass | Plasma alanine aminotransferase concentration on day 28 compared to DIO vehicle [3]: statistically significantly lower plasma alanine aminotransferase concentration | 24 hour blood glucose profile following first treatment [3]: decrease in blood glucose concentrations below concentrations observed in DIO control mice | Body mass change [3]: -5.58 ± 0.60 g | Whole body fat mass change [3]: -4.46 ± 0.50 g | Terminal liver mass (g) [3]: +1.14 ± 0.04 g | Terminal plasma alanine aminotransferase (U/L) [3]: +47.63 ± 6.76 U/L | Terminal plasma insulin (U/L) [3]: +58.04 ± 6.33 U/L | Terminal plasma total cholesterol (mmol/L) [3]: +4.19 ± 0.15 mmol/L

CCCCCCCCCCCCCCCC(=O)N[C@@H](CCC(=O)N[C@@H](CCC(=O)NCCCC[C@H](NC(=O)[C@H](CC(C)C)NC(=O)[C@H](CCCCN)NC(=O)[C@H](CO)NC(=O)[C@H](CC(C)C)NC(=O)[C@H](CC(=O)O)NC(=O)[C@H](CO)NC(=O)[C@@H](NC(=O)[C@H](Cc1ccccc1)NC(=O)[C@@H](NC(=O)CNC(=O)[C@H](CCC(N)=O)NC(=O)C(C)(C)NC(=O)[C@@H](N)Cc1c[nH]cn1)[C@@H](C)O)[C@@H](C)O)C(=O)N[C@@H](CCC(=O)O)C(=O)N[C@@H](CCCCN)C(=O)N[C@@H](CCC(N)=O)C(=O)N[C@@H](CCCNC(=N)N)C(=O)N[C@@H](CCC(N)=O)C(=O)NC(C)(C)C(=O)N[C@@H](CCC(=O)O)C(=O)N[C@@H](Cc1ccccc1)C(=O)N[C@H](C(=O)N[C@@H](CCC(=O)O)C(=O)N[C@@H](Cc1c[nH]c2ccccc12)C(=O)N[C@@H](CC(C)C)C(=O)N[C@@H](CCCCN)C(=O)N[C@@H](C)C(=O)N[C@H](C)C(=O)NCC(=O)N[C@@H](Cc1c[nH]cn1)C(=O)N1CCC[C@H]1C(=O)N[C@@H](CO)C(=O)NC(C)(C)C(=O)N[C@@H](CCCCN)C(=O)N1CCC[C@H]1C(=O)N1CCC[C@H]1C(=O)N1CCC[C@H]1C(=O)N[C@@H](CCCCN)C(N)=O)[C@@H](C)CC)C(=O)O)C(=O)O [SEQ ID NO: 13, H-Aib-Q-G-T-F-T-S-D-L-S-K-L-K[gGlu-gGlu-Palm]-E-K-Q-R-Q-Aib-E-F-I-E-W-L-K-A-dAla-G-H-P-S-Aib-K-P-P-P-K-NH2] (H-H[Aib]QGTFTSDLSKLK([γGlu-γGlu-Palmitoyl])EKQRQ[Aib]EFIEWLKA[dA]GHPS[Aib]KPPPK-NH2)
Chemical stability [relative purity loss 28 days 40° C.] (%) at pH 4.5 [1]: 4.5% | Lag time before increase [2]: >45 h
